{"source": "ChEMBL document CHEMBL4602617", "about": "“Discovery and optimization of heteroaryl piperazines as potent and selective PI3Kδ inhibitors” (Bioorg Med Chem Lett, 2020)", "key": {"[1]": {"molecular_target": "Nociceptin receptor (Homo sapiens) (UniProt P41146)", "sequence (P41146 whole entry)": "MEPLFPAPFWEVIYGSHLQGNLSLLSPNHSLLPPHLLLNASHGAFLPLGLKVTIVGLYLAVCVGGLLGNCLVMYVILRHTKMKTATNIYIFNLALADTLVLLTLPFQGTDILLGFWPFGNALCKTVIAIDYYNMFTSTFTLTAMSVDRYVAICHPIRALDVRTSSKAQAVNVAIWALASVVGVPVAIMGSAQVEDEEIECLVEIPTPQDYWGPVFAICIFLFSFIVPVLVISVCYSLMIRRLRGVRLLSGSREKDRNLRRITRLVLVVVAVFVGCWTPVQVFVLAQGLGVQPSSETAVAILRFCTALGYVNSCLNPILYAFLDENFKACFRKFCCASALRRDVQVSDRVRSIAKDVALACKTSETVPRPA", "assay": "Displacement of [3H]nociceptin from full length human recombinant ORL1 receptor expressed in HEK293 cells at 10 uM measured after 60 mins by radiometric scintillation analysis relative to control", "assay_type": "cell-based"}, "[2]": {"assay": "Half life in dog at 0.5 mg/kg, iv 1 mg/kg, po", "assay_type": "ADME, organism-based, Canis lupus familiaris", "details": "in vivo"}, "[3]": {"molecular_target": "Phosphatidylinositol 4,5-bisphosphate 3-kinase catalytic subunit gamma isoform (Homo sapiens, UniProt P48736)", "assay": "Inhibition of His-tagged recombinant human full length PI3K p110gamma expressed in baculovirus expression system using PIP2:PS lipid as substrate incubated for 1 hr in presence of ATP by Adapta assay"}, "[4]": {"molecular_target": "cAMP-dependent protein kinase catalytic subunit alpha (Homo sapiens, UniProt P17612)", "assay": "Inhibition of recombinant human His-tagged PRKACA catalytic domain expressed in Escherichia coli using fluorophore-labeled serine/threonine-1 peptide as substrate incubated for 60 mins in presence of ATP by Z'-LYTE assay"}, "[5]": {"molecular_target": "Receptor-type tyrosine-protein kinase FLT3 (Homo sapiens, UniProt P36888, D835Y)", "assay": "Inhibition of recombinant human His-tagged FLT3 D835Y mutant cytoplasmic domain expressed in baculovirus expression system after 1 using tyrosine 2 as substrate after 1 hr in presence of ATP by ZYLTE assay"}, "[6]": {"molecular_target": "Glucocorticoid receptor (Homo sapiens) (UniProt P04150)", "assay": "Displacement of [3H]dexamethasone from full length human recombinant glucocorticoid receptor expressed in insect cells at 10 uM incubated for 24 hrs by radiometric scintillation analysis relative to control"}, "[7]": {"molecular_target": "Dual specificity tyrosine-phosphorylation-regulated kinase 1A (Homo sapiens, UniProt Q13627)", "assay": "Inhibition of recombinant full length human GST-tagged DYRK1A expressed in baculovirus expression system using serine/threonine-18 peptide as substrate incubated for 60 mins in presence of ATP by Z'-LYTE assay"}, "[8]": {"molecular_target": "Calcium/calmodulin-dependent protein kinase type II subunit delta (Homo sapiens, UniProt Q13557)", "assay": "Inhibition of recombinant full length human His-tagged CAMK2D expressed in baculovirus expression system using serine/threonine-04 peptide as substrate incubated for 60 mins in presence of ATP by Z'-LYTE assay"}, "[9]": {"molecular_target": "Serine/threonine-protein kinase haspin (Homo sapiens, UniProt Q8TF76)", "assay": "Inhibition of recombinant N-terminal GST tagged human GSG2 catalytic domain (471 to 798 residues) expressed in baculovirus expression system using Histone H3 (1-20) peptide as substrate after 1 hr in presence of ATP by ADAPTA assay"}, "[10]": {"molecular_target": "Tyrosine-protein kinase ABL2 (Homo sapiens, UniProt P42684)", "assay": "Inhibition of recombinant full length human C-terminal His-tagged ABL2F cytoplasmic domain expressed in baculovirus expression system using tyrosine-2 peptide as substrate incubated for 60 mins in presence of ATP by Z'-LYTE assay"}, "[11]": {"molecular_target": "Mitogen-activated protein kinase 3 (Homo sapiens, UniProt P27361)", "sequence (P27361 whole entry)": "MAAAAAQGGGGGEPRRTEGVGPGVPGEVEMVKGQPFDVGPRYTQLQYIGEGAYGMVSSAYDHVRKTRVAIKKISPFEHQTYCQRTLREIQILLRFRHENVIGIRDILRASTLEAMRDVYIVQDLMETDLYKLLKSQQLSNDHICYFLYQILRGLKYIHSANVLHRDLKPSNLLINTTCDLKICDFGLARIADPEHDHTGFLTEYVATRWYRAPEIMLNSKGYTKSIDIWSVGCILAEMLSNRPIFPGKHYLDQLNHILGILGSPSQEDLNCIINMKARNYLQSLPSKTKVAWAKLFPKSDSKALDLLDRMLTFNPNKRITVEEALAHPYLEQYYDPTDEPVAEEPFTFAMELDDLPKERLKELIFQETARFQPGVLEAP", "assay": "Inhibition of recombinant full length human GST-tagged ERK1 expressed in Escherichia coli using fluorophore-labeled serine/threonine-3 peptide as substrate incubated for 60 mins in presence of ATP by Z'-LYTE assay"}, "[12]": {"molecular_target": "Tyrosine-protein kinase HCK (Homo sapiens, UniProt P08631)", "assay": "Inhibition of recombinant full length N-terminal GST-tagged human HCK expressed in baculovirus expression system using Tyr 02 as substrate after 1 hr in presence of ATP by Z'-LYTE assay"}, "[13]": {"molecular_target": "Tyrosine-protein kinase receptor TYRO3 (Homo sapiens, UniProt Q06418)", "sequence (Q06418 whole entry, the tested form may be a part)": "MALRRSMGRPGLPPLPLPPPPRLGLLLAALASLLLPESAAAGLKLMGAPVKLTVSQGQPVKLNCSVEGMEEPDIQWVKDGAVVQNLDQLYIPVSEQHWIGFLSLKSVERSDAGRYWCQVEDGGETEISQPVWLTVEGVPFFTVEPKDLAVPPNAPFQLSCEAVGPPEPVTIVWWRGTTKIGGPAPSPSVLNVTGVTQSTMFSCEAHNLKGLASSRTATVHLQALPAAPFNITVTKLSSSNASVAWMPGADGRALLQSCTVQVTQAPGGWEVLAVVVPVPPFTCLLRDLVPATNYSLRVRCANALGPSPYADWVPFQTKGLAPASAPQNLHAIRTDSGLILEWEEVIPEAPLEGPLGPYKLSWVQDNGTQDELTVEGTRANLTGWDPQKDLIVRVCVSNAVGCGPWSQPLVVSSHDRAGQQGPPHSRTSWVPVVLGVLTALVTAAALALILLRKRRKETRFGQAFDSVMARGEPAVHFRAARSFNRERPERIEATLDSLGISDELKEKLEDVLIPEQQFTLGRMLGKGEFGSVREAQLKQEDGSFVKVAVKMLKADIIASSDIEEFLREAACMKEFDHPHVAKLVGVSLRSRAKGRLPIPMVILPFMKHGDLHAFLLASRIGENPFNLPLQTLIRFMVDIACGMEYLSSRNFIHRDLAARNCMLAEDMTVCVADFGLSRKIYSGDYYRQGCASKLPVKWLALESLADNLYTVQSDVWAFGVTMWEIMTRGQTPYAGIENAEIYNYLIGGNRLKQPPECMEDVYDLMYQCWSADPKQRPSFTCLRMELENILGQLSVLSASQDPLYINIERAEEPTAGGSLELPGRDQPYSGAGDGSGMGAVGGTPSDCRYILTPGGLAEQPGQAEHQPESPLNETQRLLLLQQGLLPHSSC", "assay": "Inhibition of recombinant human GST-tagged RSE catalytic domain (451 to 890 residues) expressed in baculovirus expression system using tyrosine-2 peptide as substrate incubated for 60 mins in presence of ATP by Z'-LYTE assay"}, "[14]": {"molecular_target": "BDNF/NT-3 growth factors receptor (Homo sapiens, UniProt Q16620)", "sequence (Q16620 whole entry, the tested form may be a part)": "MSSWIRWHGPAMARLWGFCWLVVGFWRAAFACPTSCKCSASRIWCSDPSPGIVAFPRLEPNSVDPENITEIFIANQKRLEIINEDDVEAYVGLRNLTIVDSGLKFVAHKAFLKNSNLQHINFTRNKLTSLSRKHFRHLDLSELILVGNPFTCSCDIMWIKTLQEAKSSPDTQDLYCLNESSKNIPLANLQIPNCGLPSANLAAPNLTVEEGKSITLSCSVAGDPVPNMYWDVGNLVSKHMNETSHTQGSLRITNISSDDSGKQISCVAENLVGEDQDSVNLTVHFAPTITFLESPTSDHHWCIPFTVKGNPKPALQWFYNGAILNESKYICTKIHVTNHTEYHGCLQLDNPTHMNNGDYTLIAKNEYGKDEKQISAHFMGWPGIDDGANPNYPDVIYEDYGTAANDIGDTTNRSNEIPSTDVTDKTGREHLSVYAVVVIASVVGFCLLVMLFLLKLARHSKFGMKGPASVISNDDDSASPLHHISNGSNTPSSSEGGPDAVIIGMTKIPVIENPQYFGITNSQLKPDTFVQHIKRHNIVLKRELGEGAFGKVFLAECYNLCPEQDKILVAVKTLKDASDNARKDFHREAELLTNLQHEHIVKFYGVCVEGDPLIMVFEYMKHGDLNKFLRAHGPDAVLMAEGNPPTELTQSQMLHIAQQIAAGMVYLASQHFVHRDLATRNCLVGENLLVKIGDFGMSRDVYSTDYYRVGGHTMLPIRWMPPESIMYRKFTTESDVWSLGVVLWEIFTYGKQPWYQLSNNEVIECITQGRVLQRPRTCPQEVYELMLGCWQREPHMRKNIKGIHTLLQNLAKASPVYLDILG", "assay": "Inhibition of recombinant human His-tagged NTRK2 cytoplasmic domain (526 to 838 residues) expressed in baculovirus expression system using tyrosine-01 peptide as substrate incubated for 60 mins in presence of ATP by Z'-LYTE assay"}, "[15]": {"molecular_target": "Tyrosine-protein kinase Fes/Fps (Homo sapiens, UniProt P07332)", "sequence (P07332 whole entry)": "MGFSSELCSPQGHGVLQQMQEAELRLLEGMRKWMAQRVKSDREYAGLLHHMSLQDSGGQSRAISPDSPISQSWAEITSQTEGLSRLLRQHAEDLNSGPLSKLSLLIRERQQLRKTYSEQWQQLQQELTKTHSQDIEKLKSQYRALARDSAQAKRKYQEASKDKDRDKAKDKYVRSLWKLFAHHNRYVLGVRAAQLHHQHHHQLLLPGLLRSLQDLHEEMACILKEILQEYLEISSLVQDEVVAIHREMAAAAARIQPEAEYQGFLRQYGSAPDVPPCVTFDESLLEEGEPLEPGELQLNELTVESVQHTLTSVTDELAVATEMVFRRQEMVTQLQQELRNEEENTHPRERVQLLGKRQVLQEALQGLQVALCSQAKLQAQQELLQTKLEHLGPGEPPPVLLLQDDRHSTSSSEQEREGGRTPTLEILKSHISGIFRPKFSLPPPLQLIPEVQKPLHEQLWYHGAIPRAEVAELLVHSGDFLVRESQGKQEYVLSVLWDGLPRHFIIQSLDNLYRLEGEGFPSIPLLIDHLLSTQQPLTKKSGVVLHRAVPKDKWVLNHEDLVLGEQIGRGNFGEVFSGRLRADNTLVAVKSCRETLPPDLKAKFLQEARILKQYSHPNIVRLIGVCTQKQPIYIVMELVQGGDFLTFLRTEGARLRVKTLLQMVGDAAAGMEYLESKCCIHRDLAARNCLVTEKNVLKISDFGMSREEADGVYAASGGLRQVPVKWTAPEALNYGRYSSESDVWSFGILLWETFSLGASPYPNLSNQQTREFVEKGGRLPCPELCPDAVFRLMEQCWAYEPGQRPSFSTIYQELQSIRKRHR", "assay": "Inhibition of recombinant His-tagged full length human FES expressed in baculovirus expression system using Tyr 01 peptide as substrate after 1 hr by Z'-LYTE assay"}, "[16]": {"molecular_target": "Tyrosine-protein kinase JAK3 (Homo sapiens, UniProt P52333)", "assay": "Inhibition of recombinant human GST-tagged JAK3 catalytic domain (781 to 1124 residues) expressed in baculovirus expression system using tyrosine-6 peptide as substrate incubated for 60 mins in presence of ATP by Z'-LYTE assay"}, "[17]": {"molecular_target": "Ribosomal protein S6 kinase alpha-2 (Homo sapiens, UniProt Q15349)", "assay": "Inhibition of recombinant full length human GST-tagged RPS6KA2 expressed in insect expression system using Ser/Thr 06 peptide as substrate incubated for 60 mins in presence of ATP by Z'-LYTE assay"}, "[18]": {"molecular_target": "Tyrosine-protein kinase ABL1 (Homo sapiens, UniProt P00519, E255K)", "sequence (P00519 whole entry E255K, the tested form may be a part)": "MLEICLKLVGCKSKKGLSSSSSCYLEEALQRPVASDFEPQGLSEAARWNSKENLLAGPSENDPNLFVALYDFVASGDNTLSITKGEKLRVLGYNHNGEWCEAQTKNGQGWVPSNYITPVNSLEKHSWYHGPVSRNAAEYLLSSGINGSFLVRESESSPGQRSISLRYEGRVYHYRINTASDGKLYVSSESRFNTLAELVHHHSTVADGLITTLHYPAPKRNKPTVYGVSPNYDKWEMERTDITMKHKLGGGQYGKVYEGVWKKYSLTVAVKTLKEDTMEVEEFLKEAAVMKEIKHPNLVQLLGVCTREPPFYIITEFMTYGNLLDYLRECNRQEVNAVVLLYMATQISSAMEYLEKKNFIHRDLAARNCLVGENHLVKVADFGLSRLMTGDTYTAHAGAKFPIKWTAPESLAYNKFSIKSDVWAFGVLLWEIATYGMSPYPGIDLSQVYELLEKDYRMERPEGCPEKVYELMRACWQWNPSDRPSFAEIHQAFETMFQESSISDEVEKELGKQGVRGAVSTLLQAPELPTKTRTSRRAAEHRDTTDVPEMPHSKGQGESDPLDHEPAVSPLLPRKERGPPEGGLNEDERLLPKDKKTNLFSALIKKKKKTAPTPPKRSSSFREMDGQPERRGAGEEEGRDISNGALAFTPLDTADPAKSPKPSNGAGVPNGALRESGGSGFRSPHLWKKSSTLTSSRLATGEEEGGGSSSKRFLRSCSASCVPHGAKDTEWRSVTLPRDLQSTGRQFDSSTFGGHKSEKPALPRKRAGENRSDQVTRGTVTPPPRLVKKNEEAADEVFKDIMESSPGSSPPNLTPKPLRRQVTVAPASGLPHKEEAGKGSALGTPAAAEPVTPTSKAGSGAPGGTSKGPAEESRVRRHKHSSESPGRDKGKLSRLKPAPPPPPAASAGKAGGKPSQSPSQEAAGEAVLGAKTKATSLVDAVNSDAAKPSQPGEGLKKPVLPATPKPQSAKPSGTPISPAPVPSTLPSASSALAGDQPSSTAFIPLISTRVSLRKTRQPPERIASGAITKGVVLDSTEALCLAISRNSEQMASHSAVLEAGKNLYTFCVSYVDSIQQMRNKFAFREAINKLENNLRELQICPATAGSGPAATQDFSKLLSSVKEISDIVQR", "assay": "Inhibition of recombinant full length human His-tagged ABL1 E255K mutant cytoplasmic domain expressed in baculovirus expression system using tyrosine-2 peptide as substrate incubated for 60 mins in presence of ATP by Z'-LYTE assay"}, "[19]": {"molecular_target": "Receptor tyrosine-protein kinase erbB-4 (Homo sapiens, UniProt Q15303)", "assay": "Inhibition of recombinant human N-terminal GST-tagged ERBB4 catalytic domain (708 to 993 residues) expressed in baculovirus expression system using tyrosine-1 peptide as substrate incubated for 60 mins in presence of ATP by Z'-LYTE assay"}, "[20]": {"molecular_target": "5-hydroxytryptamine receptor 1A (Homo sapiens) (UniProt P08908)", "assay": "Displacement of [3H]-8-OH-DPAT from full length human recombinant 5HT1A receptor expressed in CHOK-1 cells at 10 uM measured after 60 mins by radiometric scintillation analysis relative to control", "assay_type": "cell-based"}, "[21]": {"molecular_target": "Serine/threonine-protein kinase MARK1 (Homo sapiens, UniProt Q9P0L2)", "assay": "Inhibition of recombinant full length human GST-tagged MARK1 expressed in baculovirus expression system using serine/threonine-21 peptide as substrate incubated for 60 mins in presence of ATP by Z'-LYTE assay"}, "Ephrin type-A receptor 3": {"molecular_target": "Ephrin type-A receptor 3 (Homo sapiens, UniProt P29320)", "assay": "Inhibition of tracer 236 binding to recombinant human His-tagged EPHA3 (569 to 976 residues) expressed in baculovirus expression system measured after 60 mins in presence of ATP by Lanthascreen assay"}, "[22]": {"molecular_target": "Tyrosine-protein kinase Fyn (Homo sapiens, UniProt P06241)", "sequence (P06241 whole entry, the tested form may be a part)": "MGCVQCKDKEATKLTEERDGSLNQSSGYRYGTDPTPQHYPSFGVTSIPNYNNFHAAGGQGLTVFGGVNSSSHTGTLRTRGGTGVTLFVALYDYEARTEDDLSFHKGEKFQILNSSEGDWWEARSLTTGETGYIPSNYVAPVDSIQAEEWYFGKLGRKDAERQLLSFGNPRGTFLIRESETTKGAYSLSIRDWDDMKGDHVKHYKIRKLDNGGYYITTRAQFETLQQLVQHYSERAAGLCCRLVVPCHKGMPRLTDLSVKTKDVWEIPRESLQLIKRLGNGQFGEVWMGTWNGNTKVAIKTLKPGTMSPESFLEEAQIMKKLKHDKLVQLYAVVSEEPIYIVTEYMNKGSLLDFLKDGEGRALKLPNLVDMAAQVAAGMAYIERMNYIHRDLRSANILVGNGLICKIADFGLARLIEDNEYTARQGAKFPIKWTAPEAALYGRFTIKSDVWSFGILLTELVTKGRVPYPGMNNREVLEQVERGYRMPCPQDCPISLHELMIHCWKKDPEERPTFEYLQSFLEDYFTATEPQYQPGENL", "assay": "Inhibition of recombinant full length C-terminal His-tagged human FYN cytoplasmic domain expressed in baculovirus expression system using fluorophore-labeled tyrosine-2 peptide as substrate after 1 hr in presence of ATP by Z'-Lyte assay"}, "[23]": {"assay": "Protein binding in rat plasma at 0.5 mg/kg, iv or 1 mg/kg, po", "assay_type": "ADME, organism-based", "details": "read-out: PPB (converted)"}, "[24]": {"molecular_target": "Casein kinase I isoform delta (Homo sapiens, UniProt P48730)", "assay": "Inhibition of recombinant human full-length GST-tagged CSNK1D expressed in baculovirus expression system using FRET-labeled Ser/Thr 11 peptide as substrate measured after 1 hr in presence of ATP by Z'-lyte assay"}}, "data": [{"smiles": "C[C@@H]1C[C@H]1C(=O)N1CCN(c2cnc(C#N)c(-c3cnn(C)c3)n2)C[C@H]1C", "values": [{"measurement": "inhibition", "setting": "[1]", "value": -1, "unit": "%"}, {"measurement": "half-life", "setting": "[2]", "value": 2.9, "unit": "h"}, {"measurement": "IC50", "setting": "[3]", "value": 0.945, "unit": "µM"}, {"measurement": "IC50", "setting": "[4]", "value": "> 100", "unit": "µM"}, {"measurement": "IC50", "setting": "[5]", "value": "> 100", "unit": "µM"}, {"measurement": "inhibition", "setting": "[6]", "value": 7, "unit": "%"}, {"measurement": "IC50", "setting": "[7]", "value": "> 100", "unit": "µM"}, {"measurement": "IC50", "setting": "[8]", "value": "> 100", "unit": "µM"}, {"measurement": "IC50", "setting": "[9]", "value": "> 100", "unit": "µM"}, {"measurement": "IC50", "setting": "[10]", "value": "> 100", "unit": "µM"}, {"measurement": "IC50", "setting": "[11]", "value": "> 100", "unit": "µM"}, {"measurement": "IC50", "setting": "[12]", "value": 37.6, "unit": "µM"}, {"measurement": "IC50", "setting": "[13]", "value": "> 100", "unit": "µM"}, {"measurement": "IC50", "setting": "[14]", "value": "> 100", "unit": "µM"}, {"measurement": "IC50", "setting": "[15]", "value": "> 100", "unit": "µM"}, {"measurement": "IC50", "setting": "[16]", "value": 13.7, "unit": "µM"}, {"measurement": "IC50", "setting": "[17]", "value": "> 100", "unit": "µM"}, {"measurement": "IC50", "setting": "[18]", "value": "> 100", "unit": "µM"}, {"measurement": "IC50", "setting": "[19]", "value": "> 100", "unit": "µM"}, {"measurement": "inhibition", "setting": "[20]", "value": 9, "unit": "%"}, {"measurement": "IC50", "setting": "[21]", "value": "> 100", "unit": "µM"}, {"measurement": "IC50", "setting": "Ephrin type-A receptor 3", "value": "> 100", "unit": "µM"}, {"measurement": "IC50", "setting": "[22]", "value": "> 100", "unit": "µM"}, {"measurement": "fraction unbound", "setting": "[23]", "value": 0.152}, {"measurement": "IC50", "setting": "[24]", "value": "> 100", "unit": "µM"}]}]}
